# Measured values published in patent US6248718A, “Lesion-directed dry dosage forms of antibacterial agents for the treatment of acute mucosal infections of the oral cavity” (priority 1999, dated 2001).
# “And” between values parts separate entries of the source, which are not always exact repeats. Equal values may be shown once. “Also recorded” adds a separate entry of the source.
# Assays:
# [1] = test system: Staphylococcus aureus ATCC 29213; test: MIC for standard strain used in saliva antibiotic assay (Examples VII-IX); type: cell-based; settings: Staphylococcus aureus, ATCC29213; nutrient broth, 37° C., 18 hours
# Procedure: Each filtered mixture in test tube was inoculated with 0.1 ml of a 1:1,000 dilution of a 12 hour broth culture of Staphylococcus aureus ATCC 29213.
# A row of 6 test tubes each containing 2 ml of nutrient broth with decreasing concentrations of penicillin G potassium from 6.2 to 0.16 mcg/ml, using a serial double dilution method described in a., was prepared and similarly inoculated with 0.1 ml broth culture of Staphylococcus aureus ATCC 29213 as the standard.
# All test tubes were incubated at 37° C. for 18 hours and observed for bacterial growth against an inoculated broth containing neither antibiotic nor saliva samples.
# In this study, the drug powder was suspended in one teaspoonful of water and swallowed by the test subjects two hours after breakfast, followed by drinking an 8 Oz. glass of water. The test subjects refrained from drinking or eating for the next three hours. Six samples of saliva were collected from each subject at 30-minute intervals in succession in the next three hours. An aliquot of 0.2 ml from each saliva sample was transferred to 3.8 ml of nutrient broth. The mixture of the latter was forced to pass a bacterial filter. Two (2) ml of the bacteria-free filtrate was pipetted out into a sterile test tube and inoculated with 0.1 ml of a 1:1,000 dilution of a 12 hours broth culture of Staphylococcus aureus ATCC 29213 and incubated at 37° C. for 18 hours. […]
# [2] = test system: bacteria in saliva of healthy volunteers; test: Inhibition of bacterial growth in the saliva in vivo (Example V); settings: for bacterial colonies from saliva after topical medication: 1 hour, 0.1 ml saliva
# Procedure: Five healthy adult volunteers, three men and two women, were asked to refrain from drinking or eating for two hours after breakfast. At the end of two hours, an aliquot of 0.1 ml of saliva was pipetted from the mouth of each volunteer and spread over the surface of a sheep blood agar plate with a sterile plastic loop. The inoculated blood agar plate was incubated in an aerobic atmosphere containing 5% CO2 as pre-medication control. Then 100 mg, 50 mg, 20 mg, 10 mg and 2 mg of penicillin G potassium dry powder, USP grade, were placed in the right buccal pouch with a spatula between the cheek and the lower gum of each volunteer, respectively. The volunteers were asked to retain the dissolved penicillin powder at the site of medication as concentrated as possible, not to be diluted by saliva from other parts of the mouth for one hour.
# At the end of one hour, 0.1 ml of saliva from each volunteer was pipetted from the right buccal pouch where the medication was placed, and inoculated and spread onto the surface of a sheep blood agar plate. The inoculum was spread with a sterile plastic loop.
# [3] = test system: bacteria in saliva in the vicinity of the canker ulcer; test: Bacterial inhibition in saliva of canker sore patients in vivo (Example VI)
# Procedure: Six (6) adult, otherwise healthy patients suffering from recurrent minor canker sores were selected for this study from July 10 to Nov. 12, 1998. The drug substance used for this study was crystalline penicillin G potassium salt, U.S.P. grade, purchased from Sigma Chemical Co., St. Louis, Mo. 63178 (Lot No. 57H1195).
# On the first or the second day after the patients noticed the formation of the canker ulcers, 50 mg of penicillin G potassium was administered topically with a spatula or the handle of a teaspoon as dry powder directly over the canker ulcers, four times a day, i.e. after breakfast, after lunch, after supper and before bed time. The patients were advised to retain the antibiotic powder and its concentrated solution in a small pocket of saliva at the site of the ulcer and to avoid its excessive dilution by saliva from other parts of the oral cavity for one hour after each application of the antibiotic powder. No food or drink was allowed during this one-hour period.
# Samples of 0.1 ml of saliva at the site in the vicinity of the canker ulcer were pipetted from the mouth immediately before instituting the first penicillin G potassium application and about 60-70 minutes after the first antibiotic application. Each sample was spread on the surface of a 10-cm blood agar Petri dish with a sterile plastic loop. The inoculated plates were incubated aerobically at 37° C. for 18 hours as described above. The total numbers of bacterial colonies on each plate were estimated. The dominating species of the microorganisms were identified according to the approved protocols routinely used in a clinical microbiology laboratory. The results are tabulated as follows
# On day 2, about 48 hours after the medication was initiated, the patients collected an early morning sample of saliva immediately after getting up and submitted it to the laboratory for culture. While in the laboratory, a second sample of the residual exudate covering the ulcer was taken from the patient for a post-treatment follow-up microscopy after Congo red negative staining.
# On day 6, i.e. two days after the last dose of medication, the patients were instructed to collect a sample of saliva in a sterile test tube upon waking up in the morning before brushing their teeth. The saliva was brought to the laboratory. Aliquot of 0.1 ml of each saliva sample was pipetted and inoculated on the surface of a blood agar plate and incubated aerobically as described previously. After 18 hours of incubation, there were more 3,000 colonies growing on each blood agar plate. The overwhelming majority of the colonies were those of Neisseriae and non-β-hemolytic streptococci, similar to those observed in FIG. 1.
# [4] = Concentrations of penicillin G potassium in saliva after oral ingestion (Example VIII); type: in vivo, human; settings: for concentration in human saliva: 30-min intervals to 3 hours
# Procedure: Eight healthy adults, four men and four women, volunteered for this study. Two men and two women were given 500 mg each, and two men and two women were given 250 mg of USP grade penicillin G potassium powder each by mouth, respectively. These two doses were chosen for the study because they have been used as the standard adult oral doses for systemic treatment of human bacterial infections.
# In this study, the drug powder was suspended in one teaspoonful of water and swallowed by the test subjects two hours after breakfast, followed by drinking an 8 Oz. glass of water. The test subjects refrained from drinking or eating for the next three hours. Six samples of saliva were collected from each subject at 30-minute intervals in succession in the next three hours. An aliquot of 0.2 ml from each saliva sample was transferred to 3.8 ml of nutrient broth. The mixture of the latter was forced to pass a bacterial filter. Two (2) ml of the bacteria-free filtrate was pipetted out into a sterile test tube and inoculated with 0.1 ml of a 1:1,000 dilution of a 12 hours broth culture of Staphylococcus aureus ATCC 29213 and incubated at 37° C. for 18 hours. A series of test tubes containing known concentrations, from 6.2 mcg/ml to 0.16 mcg/ml, of penicillin G potassium in 2 ml of nutrient broth was also inoculated with the same broth culture as standards.
# Since 0.75 mcg/ml is the consistent MIC observed in this laboratory for Staphylococcus aureus ATCC 29213, the penicillin concentration in the saliva-broth filtrate must have been at a level below 0.75 mcg/ml.
# [5] = Topical dry dosage treatment of minor aphthous ulcers, gingivitis and periodontal infections; type: in vivo, human; settings: 50 mg dry dosage form, four times a day
# Description: The administration of the medicament depends upon the type of infection to be treated and the type and dosage of the antibacterial agent used. The appropriate antibacterial agent, dosage and treatment regimen can readily be determined by someone having ordinary skill in this art. […] Thorough tooth cleaning is advised prior to introduction of the medicament to an infected area.
smiles,measurement,setting,value
CC1(C)S[C@@H]2[C@H](NC(=O)Cc3ccccc3)C(=O)N2[C@H]1C(=O)O [penicillin G potassium],MIC,[1],0.75 µg/mL
same,bacterial colonies from saliva after topical medication,[2]; 2 mg powder,a few isolated bacterial colonies; also recorded: partial inhibition of growth
same,bacterial colonies from saliva after topical medication,[2]; 10 mg powder,no bacterial colonies
same,bacterial colonies from saliva after topical medication,[2]; 20 mg powder,no bacterial colonies
same,bacterial colonies from saliva after topical medication,[2]; 50 mg powder,no bacterial colonies
same,bacterial colonies from saliva after topical medication,[2]; 100 mg powder,no bacterial colonies
same,dose required for total cessation of bacterial growth in small pocket of saliva,"[2]; powder, one-hour medication",at least 10 mg
same,duration of inhibitory effect on oral flora,[3]; 50 mg,not long-lasting
same,alteration of normal oral flora,"[3]; 50 mg four times a day, intermittent",not permanently altered; also recorded: did not seem to alter the dominant microbial components of the normal flora
same,Colonies after Treatment,"[3]; 50 mg powder, about 60-70 minutes, 0.1 ml saliva, per patient, Y = yeast",0 and 2 and Two
same,inhibition of bacteria in saliva covering the ulcer,"[3]; 50 mg powder, about one hour",totally destroyed or inhibited; also recorded: intermittent total inhibition of bacterial growth in the saliva
same,bacterial colonies in early morning saliva,"[3]; day 2, about 48 hours after start of medication, 0.1 ml","more than 3,000 bacterial colonies"
same,bacterial colonies in morning saliva,"[3]; day 6, two days after last dose, 0.1 ml","> 3,000 colonies"
same,concentration in human saliva,[4]; oral ingestion of 250 mg,< 15000 ng/mL
same,concentration in human saliva,[4]; oral ingestion of 500 mg,< 15000 ng/mL
same,bacterial growth in saliva-broth filtrate,"[4]; oral ingestion of 250 or 500 mg, S. aureus ATCC 29213, 48 tubes",vigorous bacterial growth
same,patients with complete relief of pains within about 48 hours,[5],over 90%
same,time to complete relief of pains,[5],≤ 48 h
